We go through six compounds from PMC5902495, “Synthesis of Symmetrical Tetrameric Conjugates of the Radiolanthanide Chelator DOTPI for Application in Endoradiotherapy by Means of Click Chemistry” (Frontiers in Chemistry, 2018).

Where “and” joins values, the source holds several entries; their conditions need not be identical. Equal entries are not always repeated. Where two headings read alike, the source gives them in different places. Marks after values point to notes of the source that are not given here.

The conditions of data set [1]: cited from earlier work.
Data set [2] is described as follows: Protonation constants of ligands by pH-potentiometry. In kind it is physicochemical. The settings on record: 25°C, I = 0.15 M NaCl. An excerpt: (§1) For determining the protonation constants of DOTPI(Chx)4 and DOTPI three parallel pH-potentiometric titration were made with 0.2 M NaOH in 0.002 M ligand solutions. The stability and protonation constants of the Ca^II and Zn^II complexes formed with DOTPI(Chx)4 and DOTPI ligands have been determined by direct pH-potentiometric titration made at 1:1 and 2:1 metal to ligand concentration ratios. (the concentration of ligands was 0.002 M). For the calculation of the logKML and logKMLHi values, the mL base—pH data used were obtained in the pH range 1.7–12.0.
(§2) For pH measurements and titrations, a Metrohm 785 DMP Titrino titration workstation and a Metrohm-6.0233.100 combined electrode were used. Equilibrium measurements were carried out at a constant ionic strength (0.15 M NaCl) in 6 mL samples at 25°C. The solutions were stirred, and constantly purged with N2. The titrations were performed in a pH range of 1.7–11.7. KH-phthalate (pH = 4.005) and borax (pH = 9.177) buffers were used to calibrate the pH meter. For calculation of [H^+] from measured pH values, the method proposed by Irving et al. was used (Irving et al., [1967]). A 0.01 M HCl solution was titrated with the standardized NaOH solution in the presence of 0.1 M NaCl. Differences between the measured (pHread) and calculated pH (–log[H^+]) values were used to obtain the equilibrium H^+ concentration from the pH values, measured in the titration experiments. For the equilibrium calculations, the stoichiometric water ionic product (pKw) is also needed to calculate [H^+] values in basic conditions. The VNaOH – pHread data pairs of the HCl – NaOH titration obtained in the pH range 10.5–12 have been used to calculate the pKw value (pKw = 13.85). For the calculation of the equilibrium constants the program PSEQUAD (Zekany and Nagypal, [1985]) was used.
(§3) 2. Protonation and complexation equilibria of DOTPI and
(§4) The protonation processes of the DOTPI and DOTPI(Chx)4, ligands have been studied by pH-potentiometry. The protonation constants (logKiH) of ligands are defined according to Eq. (1).
(§5) The stability and protonation constants of DOTPI and DOTPI(Chx)4 complexes with several metal ions were determined by pH-potentiometric and UV/Vis spectrophotometric, methods.
(§6) The stability and protonation constants of the metal complexes formed with the DOTPI and DOTPI(Chx)4, ligands, defined by Eqs. […]
(§7) where i = 1, 2, 3…5. The KML and KMHiL values characterizing the formation of DOTPI and DOTPI(Chx)4 complexes of CaII and ZnII have been calculated from the pH-potentiometric titration data obtained at 1:1 metal to ligand concentration ratios. The protonation constants of the complexes Cu(DOTPI) and Cu(DOTPI( Chx)4) were also determined by pH-potentiometric titrations, made at 1:1 metal to ligand concentration ratio. The pH-potentiometric titrations of DOTPI ligand were also performed at 2:1 metal-to-ligand ratio in order to examine the possible formation of dinuclear CaII-, ZnII-, and CuII-DOTPI complexes.
(§8) The stability and protonation constants of the dinuclear complexes formed with the DOTPI […]
(§9) where i=1 and 2. In calculating the equilibrium constants, the best fit of the mL base – pH data was obtained by assuming the formation of ML, MHL, MH 2L, MH3L, MH4L, MH5L, M2L, M2LH, and M2LH2 complexes with DOTPI and DOTPI(Chx)4.
(§10) (also on this page, place not known: ]H][LH[ ]LH[K 1i iH + − = DOTPI( Chx)4 f ormed ]L][M[ ]ML[K ML = ]H][LMH[ ]LMH[K 1i i LMHi + − = i 3 …5. Ca II Zn II -potentiometric pH - metal -to-ligand Cu II-DOTPI ]M][ML[ ]LM[K 2 LM2 = ]H][LHM[ ]LHM[K 1i2 i2 LHM i2 + − = pH MH 4L,) […]

Data set [3] is described as follows: Stability and protonation constants of Cu^II complexes (spectrophotometry, pH-potentiometry). It counts as physicochemical. The settings on record: 25°C. On the procedure:
Stability constant of Cu(DOTPI) complex was determined by spectrophotometry, studying the Cu^II-DOTPI systems at the absorption band of Cu^II-complex at [H^+] = 0.01– 0.2 M over the wavelength range of 400–800 nm. Concentrations of Cu^II and DOTPI were 1 mM. The H^+ concentration in the samples was adjusted by addition of calculated amounts of 2.0 M HCl, while ionic strength was not constant in these samples. Samples were kept at 25°C for a week. Absorbance values were determined at 9 wavelengths (550, 575, 600, 625, 650, 675, 700, 725, and 750 nm). For calculation of stability and protonation constants of Cu(DOTPI), molar absorptivities of CuCl2, and Cu(HxL) species (wherein x = 0, 1, 2 …5) were determined by recording the spectra of 1.0 × 10^−3, 2.0 × 10^−3 and 3.0 × 10^−3 M solutions of CuCl2 and Cu(DOTPI) in the pH range of 1.7–11.7. The protonation constants of the complexes Cu(DOTPI) and the stability and protonation constants of the dinuclear Cu2(DOTPI) complexes were determined by pH-potentiometric titrations, made at 1:1 and 2:1 metal to ligand concentration ratios.
The stability constant of the Cu(DOTPI(Chx)4) complex has been determined by spectrophotometry with the use of competition reactions between DOTPI(Chx)4 and EDTA for the Cu^2+ at pH = 5.0. The concentration of Cu(EDTA) was 0.2 mM, while that of the DOTPI(Chx)4 was varied between 0.1 and 1.0 mM (5 samples). The samples were kept at 25°C for 2 weeks. The absorbance values and the molar absorptivities of CuCl2, Cu(DOTPI(Chx)4), and Cu(EDTA) have been determined at 11 wavelength (300, 304, 308, 312, 316, 320, 324, 328, 332, 336, and 340 nm) values between 300 and 340 nm. The molar absorptivities of CuCl2, Cu(DOTPI(Chx)4), and Cu(EDTA) were deteremined in 0.05, 0.1, 0.2, 0.3, and 0.4 mM solutions. The absorbance and pH values were determined in the samples after the equilibrium was reached (the time needed to reach the equilibria was determined by spectrophotometry). The spectrophotometric measurements were made with the use of 1.0 cm cells with a Cary 1E spectrophotometer at 25°C. The protonation constants of Cu(DOTPI(Chx)4) complex were determined by pH-potentiometric titrations at 1:1 metal to ligand molar ratio.
as §2, with “The VNaOH – pHread data pairs of the HCl – NaOH titration obtained in the pH range 10.5–12 have been used to calculate the pKw value (pKw = 13.85).” left out
as §3, §4, §5
The stability and protonation constants of the metal complexes formed with the DOTPI and […]

A short description of data set [4]: Stability and protonation constants of Zn^II complexes (pH-potentiometry). It counts as physicochemical. The settings on record: 25°C.
From the text: as §1, §2, §3, §4, §5, §6, §7, §8, §9, §10

Data set [5] in a line: Stability and protonation constants of Ca^II complexes (pH-potentiometry). The settings on record: 25°C, I = 0.15 M NaCl, potentiometry. It counts as physicochemical.
From the text: as §1, §2, §3, §4, §5, §6
where i = 1, 2, 3…5. The KML and KMHiL values characterizing the formation of DOTPI and DOTPI(Chx)4 complexes of CaII and ZnII have been calculated from the pH-potentiometric titration data obtained at 1:1 metal to ligand concentration ratios. The protonation constants of the complexes Cu(DOTPI) and Cu(DOTPI( Chx)4) were also determined by pH-potentiometric titrations, made at 1:1 metal to ligand concentration ratio. […]

The conditions of data set [6]: cited from earlier work. The source holds these as a separate data set.
On the set-up of data set [7]: method as in Chaves et al., [1992]. The settings on record: ref Chaves et al., [1992]; cited from earlier work.
The conditions of data set [8]: 25°C, cited from earlier work.
For data set [9] the following is noted: 25°C, cited from earlier work. The source holds these as a separate data set.
The mark [10] stands for this setting: 25°C, I = 0.1 M KNO3, ref Bazakas and Lukeš, [1995], Kotková et al., [2009].
Setting [11] is: 25°C, I = 0.1 M KNO3, ref Lázár et al., [1991].
Setting [12] is: I = 0.1 M KNO3, ref Baranyai et al., [2007].
Where [13] appears, read: I = 0.1 M KNO3, ref Desreux et al., [1981].
The mark [14] stands for this setting: 25°C, I = 0.15 M NaCl, ref Baranyai et al., [2010].
The mark [15] stands for this setting: I = 0.15 M NaCl, ref Takács et al., [2014].

Take `O=C(O)CN(CCN(CC(=O)O)CC(=O)O)CC(=O)O` [EDTA, ethylenediamine-tetraacetic acid]: in [1] (taken from the literature), the logK1H is 9.43, the logK2H was 6.12, the logK3H is given as 2.85 and the logK4H is 2.18. The logK5H in data set [1] (taken from the literature) is on record as 1.77.

Regarding `O=C(CCP(=O)(O)CN1CCN(CP(=O)(O)CCC(=O)NC2CCCCC2)CCN(CP(=O)(O)CCC(=O)NC2CCCCC2)CCN(CP(=O)(O)CCC(=O)NC2CCCCC2)CC1)NC1CCCCC1` [DOTPI(Chx)4], in data set [2], the “log K1H” value is reported as 9.89 (1), the “log K2H” value was 7.73 (1) and the “log K3H” value is given as 3.34 (1). In addition, the “Σlog KiH (total basicity)” value in data set [2] (distant carboxylate groups of DOTPI not considered) was 20.96. Further, in data set [3] (0.15 M NaCl), the “protonation constant CuH2L” value is on record as 1.55 (2) and the “protonation constant CuHL” value is 2.46 (1). In addition, the “logKML, CuL” value in data set [3] (I = 0.15 M NaCl, UV/Vis spectroscopy) is listed as 20.42 (1)^a. In data set [4] (0.15 M NaCl), the “protonation constant ZnHL” value was 2.44 (8). Further, the “logKML, ZnL” value in data set [4] (I = 0.15 M NaCl, potentiometry) is reported as 15.13 (1)^b. In addition, in data set [5], the “logKML, CaL” value is given as 8.99 (2)^b.

`O=C([O-])CN(CCN(CC(=O)[O-])CC(=O)[O-])CC(=O)[O-].[Cu+2]` [Cu(EDTA), reference compound]: the “stability constant of the Cu(EDTA) complex” value in [6] (taken from the literature) was 19.05.

As for `O=C([O-])CN1CCN(CC(=O)O)CCN(CC(=O)O)CCN(CC(=O)O)CC1.[Na+]` [[Na(DOTA)]^3−], the logKNaL in data set [7] is 4.38.

Regarding `O=[PH](O)CN1CCN(C[PH](=O)O)CCN(C[PH](=O)O)CCN(C[PH](=O)O)CC1` [DOTP^H], the “logKML, CuL” value in [6] (25°C, I = 0.1 M KNO3, ref Baranyai et al., [2007]) is recorded as 18.03; in data set [6] (25°C, I = 0.1 M KNO3, ref Desreux et al., [1981]) it was 19.59. Besides, the “log K1H” value in [1] (setting [10]) was 10.41 and 10.58; in data set [1] (setting [11]), 10.94. Besides, the “log K2H” value in data set [1] (setting [10]) was 6.83 and 6.93; in data set [1] (setting [11]) it was 8.24. For the same compound, the “log K3H” value in data set [1] (setting [10]) was 1.97 and 1.90; in data set [1] (setting [11]), 3.71. Further, the “Σlog KiH (total basicity)” value in data set [1] (setting [10]) is 19.21 and 19.41; in data set [1] (setting [11]) it was 22.89. In addition, the “protonation constant CaHL” value in [8] (0.1 M KNO3) is on record as 3.94. The “logKML, CaL” value in data set [8] (setting [12]) is 9.46; in data set [8] (setting [13]), 9.39. For the same compound, in data set [9] (0.1 M KNO3), the “protonation constant ZnHL” value was 2.62. The “logKML, ZnL” value in data set [9] (setting [12]) is given as 14.60; in data set [9] (setting [13]) it was 15.80.

Consider `O=C(O)CN1CCN(CC(=O)O)CCN(CC(=O)O)CCN(CC(=O)O)CC1` [DOTA, 1,4,7,10-tetraazacyclododecane-1,4,7,10-tetraacetic acid], for which, in data set [6] (25°C, 0.15 M NaCl), the “protonation constant CuH2L” value is recorded as 3.41 (1), the “protonation constant CuH3L” value is given as 0.83 (2) and the “protonation constant CuHL” value is 4.08 (1). For the same compound, the “logKML, CuL” value in data set [6] (25°C, I = 0.15 M NaCl, ref Takács et al., [2014]) is on record as 21.97 (1). Moreover, in data set [1] (setting [14]), the “log K1H” value is given as 9.14, the “log K2H” value is 9.21, the “log K3H” value is 4.48 and the “log K4H” value is given as 4.03. For the same compound, in data set [1] (setting [14]), the “log K5H” value is 1.99, the “log K6H” value was 1.58 and the “Σlog KiH (total basicity)” value is recorded as 30.43. In addition, the “protonation constant CaHL” value in data set [8] (0.15 M NaCl) is recorded as 3.90 (2). The “logKML, CaL” value in data set [8] (setting [15]) is 13.84 (1). For the same compound, in data set [9] (0.15 M NaCl), the “protonation constant ZnH2L” value is 3.40 (1) and the “protonation constant ZnHL” value was 4.16 (2). The “logKML, ZnL” value in data set [9] (setting [15]) is reported as 17.35 (1).
